Values of other authors as cited in patent publication US7115628B2, “Bridged piperidine derivatives as melanocortin receptor agonists” (Merck & Co., Inc., priority 2001, dated 2006).

Columns and labels:
[1] = system: patients with erectile dysfunction; conditions: for duration of effect / onset of action: after an oral dose; for share of men/patients in whom effective (adequate response): oral
[2] = system: males with psychogenic erectile dysfunction
[3] = subcutaneous injection formulation

Row | Compound | duration of effect [1] | onset of action [1] | share of men/patients in whom effective (adequate response) [1] | absorption into the systemic circulation ([2]; in vivo, po) | response rate ([2]; injected intramuscularly or subcutaneously) | duration of action [2, 3] | time to onset of erection [2, 3]
1 | CCCc1nn(C)c2c(=O)[nH]c(-c3cc(S(=O)(=O)N4CCN(C)CC4)ccc3OCC)nc12 [Sildenafil, sildenafil] | about 4 hours | 30 to 60 min | about 70% |  |  |  | 
2 | Cc1ccc(N(CC2=NCCN2)c2cccc(O)c2)cc1 [phentolamine] | 2 h | 5 to 30 min | 35–40% |  |  |  | 
3 | Ac-Nle-c[Asp-His-DPhe-Arg-Trp-Lys]-NH2 [MT-II] |  |  |  | not absorbed into the systemic circulation | 75% | approximately 2.5 hours | 10 to 20 min
